Measured values: article PMC8318231, “Rate-of-Kill (RoK) assays to triage large compound sets for Chagas disease drug discovery: Application to GSK Chagas Box” (PLoS Neglected Tropical Diseases, 2021)
Like-named read-outs stand apart in the source and are kept apart here.

Tests used:
TcCYP51 = details: formerly reported; cited from earlier work
[1] = tested on: T. cruzi Tulahuen trypomastigotes; experiment: T. cruzi trypomastigote assay (Cell Titer-Glo viability, ATP luminescence); format: cell-based, Trypanosoma cruzi; details: for Trypomastigotes pIC50 48 hours: 48 hours incubation; for Trypomastigotes pIC50 48 hours / Trypomastigotes pIC50 72 hours: pIC50 = -log10 IC50 in molar units; for Trypomastigotes pIC50 72 hours: 72 hours incubation; for 72 pIC50 (trypomastigotes, raw data of Fig 1D): plotted values, censored values given without sign; for 48 pIC50 / 72 pIC50: trypomastigote assay; for IC50: Trypanosoma cruzi, TULAHUEN
Summary of the method: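 Compounds were tested in dose response or once at a final 5 μM against 5 × 10^4 trypomastigotes per well (DMEM, 2% FBS), collected on days 5–8 from LLC-MK2 infected cultures. ATP luminescence via CellTiter-Glo reports live parasites; DMSO defines 0% and cell-free wells 100% effect.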

[2] = tested on: T. cruzi intracellular amastigotes in H9c2 cells; experiment: Rate-of-Kill (RoK) high-content imaging assay, amastigotes per cell (AM/CELL) and curve descriptors; format: cell-based, Trypanosoma cruzi; parameters: key to ME_24h / ME_48h / ME_72h: % reduction in parasite burden (cidal response); t50pct_MCC50 / t50pct_Cmax: unit not given here; details: for ME_24h: 24h; for ME_48h: 48h; for ME_72h: 72h; for AM/CELL NORM: sheet figure 4 A; for t50%_Cmax / tlag_Cmax / t50pct_Cmax: at Cmax; for ME_24h (%): maximum effect at 24 h; for ME_24h (%) / ME_48h (%) / ME_72h (%): RoK assay; for ME_48h (%): maximum effect at 48 h; for ME_72h (%): maximum effect at 72 h
Description: For this high-content intracellular imaging assay, H9c2 cells were seeded in 225 cm^2 T- FLASK in DMEM with 10% FBS for 4 h to allow attachment. T. cruzi trypomastigotes, collected at days 5 to 8 after infection from LLC-MK2 parasite infected cultures, were allowed to swim out for 4 h at 37°C from a centrifuged pellet (1,600 x g / 10 min). Trypomastigotes were then collected and counted in a CASY Cell Counter using the 60 μm capillary. Trypomastigotes, in supplemented DMEM, were added to H9c2 cultures in a multiplicity of infection (MOI) of 8 and incubated for 18 h. Cells were washed once with PBS before incubation of the infected H9c2 monolayer with trypsin (Life-Technologies) to detach cells from the flask. Cells were counted in a CASY Cell Counter, using the 150 μm capillary, and their density set at 5 x 10^4 cells/mL in supplemented DMEM. Infected H9c2 were dispensed into 384-well plates at 50 μL per well using a Multidrop Combi dispenser. Control wells used to determine a 100% parasitic growth (full 6th column of each plate) were left untreated, whereas not infected cells were added in the control wells used as 0% parasite growth (or 100% parasite growth inhibition; full 18th column of each plate). The four plates corresponding to each RoK assay were predispensed for the same mother plate. […] Cultures were then fixed and stained with 50 μL per well of a PBS solution containing 4% formaldehyde and 2 μM DRAQ5 DNA dye (BioStatus, UK). Then plates were read in a PerkinElmer Opera Phenix using a 20x objective, 3 fields per well. DRAQ5 signal was detected using 640 nm excitation laser and a 690/50 nm emission detection filter. Automated image analysis was performed with a script developed on Acapella High Content Imaging and Analysis Software (PerkinElmer). Two outputs were provided for each sample well: (1) number of host cells nuclei to determine drug-related cytotoxicity (aka H9c2) and (2) number of amastigotes per cell as infection level measurement (aka AM/CELL). Each output is plotted as a time course for each compound at every concentration. This assay was adapted from Alonso-Padilla et al. and Peña et al..
To identify and classify the different compounds, the number of amastigotes per cell (AM/CELL) raw data obtained in rate of kill assay are normalised using the average of C1 (infected cells) at time 4 hours as 0% effect and the average of C2 (non-infected cells) for each time as 100% effect, according to the following Eq 1: %CIDALRESPONSE=100*[Avg_C14h-RawData]/[Avg_C14h-Avg_C2] (1)
• ME (Maximum Effect) is the maximum percentage of parasite burden reduction reached by any compound concentration. Compounds that decrease the initial parasite load will show a positive value of ME, whereas compounds that allow the progression of infection will render a negative ME value. […] It is calculated for the MCC50 (t50%_MCC50) and for the maximum concentration (t50%_Cmax). […] The value of this parameter is not either interpolated or extrapolated, and it refers to the first experimental time-course point at which a 50% of effect is reached or exceeded. • tlag defines the time elapsed for one particular concentration to reduce parasite burden between two consecutive points at any moment of the time course. It is calculated for the MCC50 (tlag_MCC50) and for the maximum concentration (tlag_Cmax). The value of this parameter is not either interpolated or extrapolated, and it refers to the first experimental time-course point of a positive slope in the normalised plot (i.e. %Cidal_Response). • Cmin_Tox (Minimal CytoToxic Concentration) is the lowest compound concentration that is reducing the number of host mammalian cells below 50% of initial cell density. Cytotoxic compounds may mislead a bona fide antiparasitic action.

[3] = maximum percentage of parasite burden reduction reached by any concentration, 24 hours

SMILES | CYP51 pIC50 (TcCYP51) | Trypomastigotes pIC50 48 hours [1] | Trypomastigotes pIC50 72 hours [1] | ME_24h ([2]; figure 5) | ME_48h ([2]; figure 5) | ME_72h ([2]; figure 5) | MCCE ([2]; RoK curve descriptor) [µM] | AM/CELL NORM ([2]; Time 4) | AM/CELL NORM ([2]; Time 24) | AM/CELL NORM ([2]; Time 48) | AM/CELL NORM ([2]; Time 72) | tlag_Cmax [2] [h] | t50pct_Cmax ([2]; figure 5) | tlag_Cmax ([2]; figure 5) | t50pct_MCC50 ([2]; at MCC50, figure 5) | tlag_MCC50 ([2]; at MCC50, figure 5) | MCCE ([2]; figure 5) | ME_24h (%) [2] [%] | ME_48h (%) [2] [%] | ME_72h (%) [2] [%] | also measured
CC(C)N(C(=O)CN1C(=O)C(N)C(=O)N(c2ccccc2)c2ccccc21)c1ccccc1 (stereo not drawn) [TCMDC-143071] | 6.5 | < 4.3 | < 4.3 | -154.934 | -40.5762 | 63.3605 | 0.6 | -6.592 | -184.227 | -40.5762 | 57.0597 | 24.0 | 72 | 24 | 72 | 24 | 0.6173 | -154.9 | -40.6 | 63.4 | 72 pIC50 (trypomastigotes, raw data of Fig 1D) ([1]; 72 hours): < 4.3; 48 pIC50 ([1]; 48 h, figure 1A): < 4.3; 72 pIC50 ([1]; 72 h, figure 1A): < 4.3; 72 pIC50 ([1]; 72 h, figure 1B): < 4.3; MCC50 ([2]; RoK curve descriptor): 5.6 µM; t50%_Cmax [2]: 72.0 h; t50%_MCC50 ([2]; at MCC50): 72.0 h; tlag_MCC50 ([2]; at MCC50): 24.0 h; MCC50 ([2]; figure 5, in µM): 5.556; ME 24h (maximum effect at 24 hours, intracellular amastigotes) [2, 3]: -154.934%
O=c1[nH]cnc2c([C@@H]3O[C@H](CO)[C@@H](O)[C@H]3O)n[nH]c12 [TCMDC-143083, Formycin B] | < 4 | – | – | 45.1391 | 64.8809 | 83.4402 | 0.6 | 22.2526 | 28.621 | 68.9466 | 69.7149 | 4.0 | 48 | 4 | 60 | 4 | 0.6173 | 45.1 | 64.9 | 83.4 | activity versus trypomastigotes at 48 hours (in words) ([1]; 48 hours): inactive; activity versus trypomastigotes at 72 hours (in words) ([1]; 72 hours): active; IC50 ([1]; 48 h, read-out: Trypomastigotes pIC50 48 hours (converted)): > 50.1 µM; IC50 ([1]; 72 h, read-out: Trypomastigotes pIC50 72 hours (converted)): 2.51 µM; ME (maximum effect) in RoK assay (in words) [2]: ME positive for all times; cidality in the RoK assay (in words) [2]: cidal; MCC50 ([2]; RoK curve descriptor): 3.7 µM; Emax ([2]; Trypanosoma cruzi, H9c2, maximum percentage of parasite burden reduction reached by any concentration, 24 hours, read-out: ME 24h (maximum effect at 24 hours, intracellular amastigotes)): 48.3%; t50%_Cmax [2]: 48.0 h; t50%_MCC50 ([2]; at MCC50): 60.0 h; tlag_MCC50 ([2]; at MCC50): 4.0 h; MCC50 ([2]; figure 5, in µM): 3.7037
COc1ccc(CN(C)Cc2ccncc2)cc1-c1ccc(S(=O)(=O)NC2CCC2)s1.O=C(O)C(F)(F)F.O=C(O)C(F)(F)F [TCMDC-143084] | 7.1 | 5 | 4.9 | -28.7145 | 25.1182 | 44.4783 | 0.6 | -8.521 | -28.7145 | 25.1182 | 44.4783 | 24.0 | 72 | 24 | 72 | 72 | 0.6173 | -28.7 | 25.1 | 44.5 | MCC50 ([2]; figure 5): 50 µM; ME 24h (maximum effect at 24 hours, intracellular amastigotes) [2, 3]: -28.7145%
CN(C)Cc1ccc(-c2ccc(S(=O)(=O)NCC3CCCO3)c(F)c2)cc1.O=C(O)C(F)(F)F (stereo not drawn) [TCMDC-143085] | 4.4 | < 4.3 | < 4.3 | -52.4333 | 20.7837 | 66.9859 | 0.6 | -2.755 | -52.4333 | 10.0788 | 59.3639 | 24.0 | 72 | 24 | 72 | 24 | 0.6173 | -52.4 | 20.8 | 67.0 | 72 pIC50 (trypomastigotes, raw data of Fig 1D) ([1]; 72 hours): < 4.3; 48 pIC50 ([1]; 48 h, figure 1A): < 4.2; 72 pIC50 ([1]; 72 h, figure 1A): < 4.3; 72 pIC50 ([1]; 72 h, figure 1B): < 4.3; MCC50 ([2]; RoK curve descriptor): 1.9 µM; t50%_Cmax [2]: 72.0 h; t50%_MCC50 ([2]; at MCC50): 72.0 h; tlag_MCC50 ([2]; at MCC50): 24.0 h; MCC50 ([2]; figure 5, in µM): 1.852; ME 24h (maximum effect at 24 hours, intracellular amastigotes) [2, 3]: -52.4333%
Cc1nc2nc(C)c(Cc3ccc(C(C)C)cc3)c(=O)n2[nH]1 [TCMDC-143087] | < 4 | 5.8 | 5.9 | 30.2741 | 57.5973 | 64.9642 | 0.3 | 2.257 | 40.319 | 64.8982 | 80.3688 | 4.0 | 60 | 4 | 72 | 38 | 0.3099 | 30.3 | 57.6 | 65.0 | activity in trypomastigotes assay (in words) ([1]; 48 and 72 hours): active versus trypomastigotes at 48 and 72 hours with the same potency; ME (maximum effect) in RoK assay (in words) [2]: positive value of ME from 24 hours; tlag (in words) [2]: low values of tlag; ME / cidal effect at 72 hours ([2]; 72 hours): ≤ 65%; MCC50 ([2]; RoK curve descriptor): 0.6 µM; t50%_Cmax [2]: 60.0 h; t50%_MCC50 ([2]; at MCC50): 72.0 h; tlag_MCC50 ([2]; at MCC50): 4.0 h; MCC50 ([2]; figure 5, in µM): 25.3086; ME 24h (maximum effect at 24 hours, intracellular amastigotes) [2, 3]: 41.0116%
COc1cc(C(C)C)c(S(C)(=O)=O)cc1C(=O)N1CCN(c2ccccc2Cl)CC1 [TCMDC-143097] | < 4 | < 4.3 | < 4.3 | -95.8223 | -1.8208 | 22.9753 | 1.9 | -12.0353 | -95.8223 | -56.5005 | 8.079 | 24.0 | 72 | 24 | 72 | 72 | 1.852 | -95.8 | -1.8 | 23.0 | 72 pIC50 (trypomastigotes, raw data of Fig 1D) ([1]; 72 hours): < 4.3; 48 pIC50 ([1]; 48 h, figure 1A): < 4.3; 72 pIC50 ([1]; 72 h, figure 1A): < 4.3; 72 pIC50 ([1]; 72 h, figure 1B): < 4.3; MCC50 ([2]; figure 5): 50 µM; ME 24h (maximum effect at 24 hours, intracellular amastigotes) [2, 3]: -95.8223%
